# Assay results as given in patent US6436365B2, “Process for therapeutic treatment of proliferative diseases” (Schering Aktiengesellschaft, priority 1997, dated 2002).
# Key:
# [1] = Topical administration via coronary perfusion/infusion catheter on arteriosclerotic lesion in the carotid artery, gamma camera measurement of activity at the lesion; format: in vivo, white New Zealand rabbit; conditions: for % of the dose at the lesion (activity at the lesion as proportion of total activity in the animal): Example 1, rabbit no. 1708, 0.48 mCi in 0.85 ml; for % of the dose at the lesion (activity in the lesion as proportion of total activity in the animal): Example 2, rabbit no. 1856, 1.91 mCi in 1.0 ml
# Method: The test animal, a white New Zealand rabbit (internal animal identification no.: 1708, male, 3.7 kg of body weight), was prepared 4 weeks before the actual administration experiment:
# Under anesthesia (Rompun/Ketavet 1:2, 1 ml/kg of body weight, i.m. administration), the endothelium was damaged with a 2F Fogarthy balloon catheter in the arteria carotis dextra (balloon denudation). Then, the animal received a special diet with an addition of 0.2% cholesterol. The test animal developed an arteriosclerotic lesion on the balloon-denuded spot created by this pretreatment.
# (§1) Topical administration of HMPAO that was labeled with technetium 99m was carried out on the anesthetized test animal (anesthesia type s.o.) via a coronary perfusion/infusion catheter (dispatch 3.0, Xtra slippery coating, manufacturer: Boston Scientific Corporation, Ratingen) directly on the lesion in the carotid artery. The radioactive dose of 0.48 mCi (=17.76 MBq) was administered in a volume of 0.85 ml.
# (§2) During the entire experiment, the test animal was under a gamma camera (Elscint SP4 HR) to measure the dispersion of radioactivity in the body. The activity at the lesion was set as a proportion of the total activity (measured at this time in the animal). In the case of this test animal, there was found:
# The test animal, a white New Zealand rabbit (internal animal identification no.: 1856, male, 3.3 kg of body weight), was prepared 4 weeks before the actual administration experiment as follows:
# as §1, with “The topical administration” for “Topical administration”, “of the” for “of”, “of 1.91” for “of 0.48”, “mCi (=70.67” for “mCi (=17.76”, “of 1.0 ml (flushing with 0.3 ml of physiological saline solution).” for “of 0.85 ml.”
# During the entire experiment, the test animal was under a gamma camera (Elscint SP4 HR) to measure the dispersion of radioactivity in the body. The activity in the lesion was set as a proportion of the total activity (measured at this time in the animal).
# [2] = Topical administration via microperforated balloon catheter after balloon denudation of the infraranal aorta, gamma camera measurement of activity in the lesion; format: in vivo, white New Zealand rabbit
# Method: The test animal was a white New Zealand rabbit (internal animal identification no.: 1584, male, 3.4 kg of body weight).
# (§3) Under anesthesia (Rompun/Ketavet 1:2, 1 ml/kg of body weight, i.m. administration), the endothelium was damaged with a balloon catheter in the infraranal aorta (balloon denudation). Then, over a period of 5 minutes, technetium 99m-labeled HMPAO was administered to the test animal via a microperforated balloon catheter (4 mm Match-35 PTA, Schneider Company, FRG). The radioactive dose of 0.64 mCi (=23.68 MBq) was administered in a volume of 1 ml.
# as §2, with “activity in” for “activity at”
# The test animal was a white New Zealand rabbit (internal animal identification no.: 1587, male, 3.5 kg of body weight).
# as §3, with “1.18” for “0.64”, “(=43.66” for “(=23.68”
# The test animal was a white New Zealand rabbit (internal animal identification no.: 1586, male, 3.3 kg of body weight).
# as §3, with “0.45” for “0.64”, “(=16.65” for “(=23.68”
smiles,measurement,setting,value
"C/C(=N\O)C(C)NCC(C)(C)CNC(C)/C(C)=N/O (stereo not drawn) [Example 99mTc-HMPAO, metal not drawn]",% of the dose at the lesion (activity at the lesion as proportion of total activity in the animal),[1]; 5 minutes post administration,55.38%
same,% of the dose at the lesion (activity in the lesion as proportion of total activity in the animal),[1]; 5 minutes post administration,40.74%
same,% of the dose at the lesion (activity at the lesion as proportion of total activity in the animal),[1]; 4 hours post administration,46.78%
same,% of the dose at the lesion (activity in the lesion as proportion of total activity in the animal),[1]; 4 hours post administration,35.13%
same,% of the dose at the lesion (activity at the lesion as proportion of total activity in the animal),[1]; 24 hours post administration,21.45%
same,% of the dose at the lesion (activity in the lesion as proportion of total activity in the animal),[1]; 24 hours post administration,23.69%
same,% of the dose at the lesion (activity in the lesion as proportion of total activity in the animal),"[2]; 5 minutes post administration, Example 3, rabbit no. 1584, 0.64 mCi in 1 ml",38.45%
same,% of the dose at the lesion (activity in the lesion as proportion of total activity in the animal),"[2]; 5 minutes post administration, Example 4, rabbit no. 1587, 1.18 mCi in 1 ml",37.06%
same,% of the dose at the lesion (activity in the lesion as proportion of total activity in the animal),"[2]; 5 minutes post administration, Example 5, rabbit no. 1586, 0.45 mCi in 1 ml",45.56%
same,% of the dose at the lesion (activity in the lesion as proportion of total activity in the animal),"[2]; 4 hours post administration, Example 3, rabbit no. 1584, 0.64 mCi in 1 ml",35.64%
same,% of the dose at the lesion (activity in the lesion as proportion of total activity in the animal),"[2]; 4 hours post administration, Example 4, rabbit no. 1587, 1.18 mCi in 1 ml",32.03%
same,% of the dose at the lesion (activity in the lesion as proportion of total activity in the animal),"[2]; 4 hours post administration, Example 5, rabbit no. 1586, 0.45 mCi in 1 ml",36.39%
same,% of the dose at the lesion (activity in the lesion as proportion of total activity in the animal),"[2]; 24 hours post administration, Example 3, rabbit no. 1584, 0.64 mCi in 1 ml",16.63%
same,% of the dose at the lesion (activity in the lesion as proportion of total activity in the animal),"[2]; 24 hours post administration, Example 4, rabbit no. 1587, 1.18 mCi in 1 ml",20.01%
same,% of the dose at the lesion (activity in the lesion as proportion of total activity in the animal),"[2]; 24 hours post administration, Example 5, rabbit no. 1586, 0.45 mCi in 1 ml",15.24%
